Test results as given in patent US12370263B2, “Cyclic dinucleotide derivative based antibody-drug conjugates” (DAIICHI SANKYO COMPANY, LIMITED, priority 2018, dated 2025).
Like-named read-outs stand apart in the source and are kept apart here.

Tests used:
[1] = target: T1, HisAviTEV-hSTING (139-342) human AQ-mutated protein (Homo sapiens, UniProt Q86WV6, G230A/H232R/R293Q); assay: Protein thermal shift assay, STING C-terminal binding domain protein; details: test compound final concentration 0.5 mM
T1 construct: made in house; host or cells: E. coli Rosetta 2 (DE3), co-expressed with BirA (1-321)

[2] = target: T2, HisAviTEV-hSTING (139-342) human REF-mutated protein (Homo sapiens, UniProt Q86WV6); assay: as above; details: test compound final concentration 0.5 mM
T2 construct: made in house; host or cells: E. coli Rosetta 2 (DE3), co-expressed with BirA (1-321)

[3] = target: T3, HisAviTEV-hSTING (139-342) human wild-type protein (Homo sapiens, UniProt Q86WV6, H232R); assay: as above; details: test compound final concentration 0.5 mM
T3 construct: made in house; host or cells: E. coli Rosetta 2 (DE3), co-expressed with BirA (1-321)

Human STING = Human STING (Homo sapiens, UniProt Q86WV6, G230A/H232R/R293Q/R71H); assay: Reporter gene assay, human STING agonist activity, THP1-Dual cells (HAQ-mutated), IRF pathway; details: 24 hours, 100% = maximum count with ML-RR-CDA·2Na+
Procedure: Human STING agonist activity was evaluated by using THP1-Dual™ cells (HAQ-mutated) (InvivoGen, CA, US), with which the activation of the pathway of interferon regulatory factor-3 (IRF3), which is present in the downstream of the STING pathway, can be confirmed.
Assay was performed as follows. First, a test compound diluted with PBS was aliquoted into a transparent 96-well plate (Corning Incorporated, NY, US) at 20 μL/well. Subsequently, reporter cells suspended in assay buffer (an RPMI1640 medium or DMEM medium containing 10% bovine serum albumin) were added at 180 μL/well (1×10^5 cells/well) to initiate stimulation. After the cells were cultured in an environment at 37° C. and 5% CO2 for 24 hours, the resultant was centrifuged to collect the supernatant. To a white 384-well plate, 6 μL of the supernatant collected was added, and 15 μL of QUANTI-Luc (InvivoGen) solution was added thereto. After the resultant was well mixed together, emission was measured by using a plate reader (PerkinElmer, Inc., MA, US).

[4] = target: T4, His-Avi-TEV-mSTING (138-341) mouse wild-type protein (Mus musculus, UniProt Q3TBT3); assay: Protein thermal shift assay, STING C-terminal binding domain protein; details: test compound final concentration 0.5 mM
T4 construct: made in house; host or cells: E. coli Rosetta 2 (DE3), co-expressed with BirA (1-321)
Procedure: Each of these expression strains was added to a TB medium containing 100 μg/mL ampicillin, 50 μg/mL streptomycin, and 30 μg/mL kanamycin, cultured at 37° C., then exposed to 100 μM IPTG for inducible expression, and further cultured at 16° C.
The culture solution was centrifuged, and the resulting bacterial cells were suspended in 50 mM HEPES pH 8.0, 500 mM NaCl, 20 mM imidazole, 1 mM DTT, 5% (w/v) glycerol, Complete EDTA free, and then subjected to freeze-thawing. After addition of Lysozyme and DNase I, proteins were extracted by ultrasonic disintegration, and centrifugation was performed and the resulting supernatant was collected. The supernatant obtained was purified by using an AKTA express chromatography system (GE Healthcare, IL, US) with a HisTrap FF column (GE Healthcare), and eluted with buffer (20 mM HEPES pH 7.5, 120 mM NaCl, 20% Glycerol, 0.8 mM DTT) through a Superdex 200 16/60 column (GE Healthcare). […] The protein concentrations were measured by using a NanoDrop2000 (Thermo Fisher Scientific, MA, US), and the proteins were cryopreserved at −80° C. until use.
The binding ability of each compound to the STING C-terminal binding domain proteins was evaluated by protein thermal shift assay, which uses the elevation of thermal denaturation temperature of protein as an index.
Specifically, 3 μL of a test compound (final concentration: 0.5 mM), 3 μL of SYPRO Orange Protein Gel Stain (Thermo Fisher Scientific) (final concentration: 20-fold), and 6 μL of a STING protein were mixed with use of assay buffer (20 mM Tris-HCl pH 7.5, 120 mM NaCl) in a 384-well real-time PCR plate, and mixed together with a plate shaker. With a real-time PCR system (Thermo Fisher Scientific), the temperature was increased from 25° C. to 95° C. at a rate of 0.03° C./sec, and the thermal denaturation temperature of the protein was measured by using fluorescence emitted from SYPRO Orange as an index. From the measurement acquired, Tm (the midpoint of the unfolding transition) (° C.) was determined as a temperature at which the increase rate of fluorescence intensity was maximized by using the analysis software Protein Thermal Shift software (Thermo Fisher Scientific). The Tm value for a well with no compound was subtracted from the Tm value for each test compound to calculate the Tm shift caused by the compound as ΔTm (° C.).

[5] = THP1-Dual cells IRF EC50, THP1-Dual cells (HAQ-mutated)

T3 sequence (Q86WV6 with tags, fused parts or gaps H232R): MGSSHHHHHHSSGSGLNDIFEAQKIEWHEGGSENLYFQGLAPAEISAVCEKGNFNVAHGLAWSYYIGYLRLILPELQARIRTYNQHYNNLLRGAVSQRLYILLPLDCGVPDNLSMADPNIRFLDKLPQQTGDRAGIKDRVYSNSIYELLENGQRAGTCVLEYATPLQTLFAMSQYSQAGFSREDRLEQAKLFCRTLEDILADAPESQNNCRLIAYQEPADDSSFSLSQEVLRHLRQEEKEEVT
Chain of Human STING (Q86WV6 whole entry R71H/G230A/H232R/R293Q, the tested form may be a part): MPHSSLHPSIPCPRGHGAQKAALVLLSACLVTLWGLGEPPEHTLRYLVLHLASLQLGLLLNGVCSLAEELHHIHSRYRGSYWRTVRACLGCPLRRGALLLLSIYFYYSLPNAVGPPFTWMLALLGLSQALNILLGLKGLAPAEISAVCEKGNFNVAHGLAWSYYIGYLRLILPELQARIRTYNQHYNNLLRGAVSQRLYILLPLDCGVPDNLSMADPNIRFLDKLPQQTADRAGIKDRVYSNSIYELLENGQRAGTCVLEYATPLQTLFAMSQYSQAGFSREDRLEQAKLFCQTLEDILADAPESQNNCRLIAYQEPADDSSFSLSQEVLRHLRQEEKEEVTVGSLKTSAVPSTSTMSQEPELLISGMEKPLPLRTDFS
T1 sequence (Q86WV6 with tags, fused parts or gaps G230A/H232R/R293Q): as the sequence (Q86WV6 with tags, fused parts or gaps H232R) above, with G131A, R194Q counted along it
T2 sequence (Q86WV6 with tags, fused parts or gaps, change not shown): as the sequence (Q86WV6 with tags, fused parts or gaps H232R) above, with R133H counted along it
T4 sequence (Q3TBT3 with tags, fused parts or gaps limits assumed): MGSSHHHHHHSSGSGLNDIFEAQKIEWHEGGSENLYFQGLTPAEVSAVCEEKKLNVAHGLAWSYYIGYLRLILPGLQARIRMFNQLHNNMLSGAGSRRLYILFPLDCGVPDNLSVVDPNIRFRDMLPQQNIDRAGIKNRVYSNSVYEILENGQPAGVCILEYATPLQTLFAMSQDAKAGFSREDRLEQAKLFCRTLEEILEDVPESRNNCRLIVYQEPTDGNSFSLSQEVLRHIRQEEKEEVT

Compound	ΔTm at 500 µM [1]	ΔTm at 500 µM [2]	ΔTm at 500 µM [3]	EC50 (Human STING; [5])	ΔTm at 500 µM [4]	ΔTm Hu-AQ [1]	ΔTm Hu-REF [2]	ΔTm Hu-WT [3]	ΔTm Ms-WT [4]	EC50 (Human STING; read-out: THP1-Dual cells IRF EC50, THP1-Dual cells (HAQ-mutated))
NCCNc1nc(N)c2ncn([C@@H]3O[C@@H]4COP(=O)(S)O[C@H]5[C@@H](O)[C@H](n6cc7c8c(ncnc86)NCCC7)O[C@@H]5COP(=O)(S)O[C@@H]3[C@@H]4O)c2n1 (single isomer, unassigned) [8a]	10.8 °C	2.8 °C	7.6 °C	3.1 µM	11.5 °C	–	–	–	–	–
Nc1nc2c(ncn2[C@@H]2O[C@@H]3COP(=O)(S)O[C@H]4[C@@H](O)[C@H](n5cc6c7c(ncnc75)NCCC6)O[C@@H]4COP(=O)(S)O[C@@H]2[C@@H]3O)c(=O)[nH]1 (single isomer, unassigned) [4b]	–	–	–	1.5 µM	–	13.1 °C	3.5 °C	9.8 °C	14.9 °C	–
O=c1c2ncn([C@@H]3O[C@@H]4COP(=O)(S)O[C@H]5[C@@H](O)[C@H](n6cc7c8c(ncnc86)NCCC7)O[C@@H]5COP(=O)(S)O[C@@H]3[C@@H]4O)c2ncn1CCCO (single isomer, unassigned) [26b]	11.5 °C	3.9 °C	9.1 °C	1.2 µM	14.1 °C	–	–	–	–	–
O=c1[nH]cnc2c1ncn2[C@@H]1O[C@@H]2COP(=O)(S)O[C@H]3[C@@H](O)[C@H](n4cc5c6c(ncnc64)NCCC5)O[C@@H]3COP(=O)(S)O[C@@H]1[C@@H]2O (single isomer, unassigned) [25b]	–	–	–	0.9 µM	–	13.1 °C	4.6 °C	10.6 °C	15.8 °C	–
Nc1nc(CO)nc2c1ncn2[C@@H]1O[C@@H]2COP(=O)(S)O[C@H]3[C@@H](O)[C@H](n4cc5c6c(ncnc64)NCCC5)O[C@@H]3COP(=O)(S)O[C@@H]1[C@@H]2O (single isomer, unassigned) [12a]	9.6 °C	3 °C	8 °C	–	11.9 °C	–	–	–	–	–
O=P1(S)OC[C@H]2O[C@@H](n3cc4c5c(ncnc53)NCCC4)[C@H](O)[C@@H]2OP(=O)(S)OC[C@H]2O[C@@H](n3cnc4c(CO)ncnc43)[C@H](O1)[C@@H]2O (single isomer, unassigned) [17b]	–	–	–	1 µM	–	10.4 °C	2.2 °C	7.4 °C	12.6 °C	–
O=C(CO)NCCn1cnc2c(ncn2[C@@H]2O[C@@H]3COP(=O)(S)O[C@H]4[C@@H](O)[C@H](n5cc6c7c(ncnc75)NCCC6)O[C@@H]4COP(=O)(S)O[C@@H]2[C@@H]3O)c1=O (single isomer, unassigned) [7b]	–	–	–	6.1 µM	–	9.5 °C	2.8 °C	7.2 °C	13.2 °C	–
Nc1ncnc2c1ncn2[C@@H]1O[C@@H]2COP(=O)(S)O[C@H]3[C@@H](O)[C@H](n4cc5c6c(ncnc64)OCCC5)O[C@@H]3COP(=O)(S)O[C@@H]1[C@@H]2O (single isomer, unassigned) [20a]	9.7 °C	3.7 °C	7.5 °C	–	12.4 °C	–	–	–	–	–

Further lines, results first:

ΔTm at 500 µM [1]	ΔTm at 500 µM [2]	ΔTm at 500 µM [3]	EC50 (Human STING; [5])	ΔTm at 500 µM [4]	ΔTm Hu-AQ [1]	ΔTm Hu-REF [2]	ΔTm Hu-WT [3]	ΔTm Ms-WT [4]	EC50 (Human STING; read-out: THP1-Dual cells IRF EC50, THP1-Dual cells (HAQ-mutated))	Compound
11.6 °C	5.4 °C	9.6 °C	6 µM	14.3 °C	–	–	–	–	–	O=c1c2ncn([C@@H]3O[C@@H]4COP(=O)(S)O[C@H]5[C@@H](F)[C@H](n6cc7c8c(ncnc86)NCCC7)O[C@@H]5COP(=O)(O)O[C@@H]3[C@@H]4O)c2ncn1CCO (stereo partly drawn) [53a, Disodium (5R,7R,8R,12aR,14R,15R,15aR,16R)-15-fluoro-16-hydroxy-7-[1-(2-hydroxyethyl)-6-oxo-1,6-dihydro-9H-purin-9-yl]-2,10-dioxo-2-sulfide-14-(6,7,8,9-tetrahydro-2H-2,3,5,6-tetraazabenzo[cd]azulen-2-yl)octahydro-2H,10H,12H-5,8-methano-2λ^5,10λ^5-furo[3,2-1][1,3,6,9,11,2,10]pentaoxadiphosphacyclotetradecin-10-olate]
9 °C	2.8 °C	6.5 °C	4.2 µM	11.2 °C	–	–	–	–	–	NCCNc1nc(N)c2ncn([C@@H]3O[C@@H]4COP(=O)(S)O[C@H]5[C@@H](O)[C@H](n6cc7c8c(ncnc86)NCCC7)O[C@@H]5COP(=O)(S)O[C@@H]3[C@@H]4F)c2n1 (single isomer, unassigned) [42a]
18.2 °C	8.7 °C	13.4 °C	0.21 µM	19.3 °C	–	–	–	–	–	O=c1c2ncn([C@@H]3O[C@@H]4COP(=O)(S)O[C@H]5[C@@H](F)[C@H](n6cc7c8c(ncnc86)NCCC7)O[C@@H]5COP(=O)(S)O[C@@H]3[C@@H]4F)c2ncn1CCO (single isomer, unassigned) [44a]
13.5 °C	5.6 °C	10.9 °C	0.31 µM	14.3 °C	–	–	–	–	–	O=c1c2ncn([C@@H]3O[C@@H]4COP(=O)(O)O[C@H]5[C@@H](F)[C@H](n6cc7c8c(ncnc86)NCCC7)O[C@@H]5COP(=O)(S)O[C@@H]3[C@@H]4O)c2ncn1CCO (single isomer, unassigned) [52a]
13.6 °C	5.2 °C	11.2 °C	0.98 µM	15.3 °C	–	–	–	–	–	NCCNc1nc(N)c2ncn([C@@H]3O[C@@H]4COP(=O)(S)O[C@H]5[C@@H](F)[C@H](n6cc7c8c(ncnc86)NCCC7)O[C@@H]5COP(=O)(S)O[C@@H]3[C@@H]4O)c2n1 (single isomer, unassigned) [37a]
–	–	–	–	–	11.8 °C	5.5 °C	10.1 °C	19.3 °C	2 µM	O=C(CO)NCCn1cnc2c(ncn2[C@@H]2O[C@@H]3COP(=O)(S)O[C@H]4[C@@H](F)[C@H](n5cc6c7c(ncnc75)NCCC6)O[C@@H]4COP(=O)(S)O[C@@H]2[C@@H]3O)c1=O (single isomer, unassigned) [36b]
11.6 °C	4.3 °C	9.9 °C	0.43 µM	17 °C	–	–	–	–	–	NCCNc1nc(N)c2ncn([C@@H]3O[C@@H]4COP(=O)(S)O[C@H]5[C@@H](F)[C@H](n6cc7c8c(ncnc86)SCCC7)O[C@@H]5COP(=O)(S)O[C@@H]3[C@@H]4F)c2n1 (single isomer, unassigned) [51b]
18.9 °C	8.8 °C	14.7 °C	0.2 µM	20.3 °C	–	–	–	–	–	O=c1c2ncn([C@@H]3O[C@@H]4COP(=O)(S)O[C@H]5[C@@H](F)[C@H](n6cc7c8c(ncnc86)NCCC7)O[C@@H]5COP(=O)(S)O[C@@H]3[C@@H]4O)c2ncn1CCO (single isomer, unassigned) [34a]
–	–	–	4.5 µM	–	9.4 °C	3.4 °C	8.1 °C	12.3 °C	–	NCCNc1nc(N)c2ncn([C@@H]3O[C@@H]4COP(=O)(S)O[C@H]5[C@@H](F)[C@H](n6cc7c8c(ncnc86)NCCC7)O[C@@H]5COP(=O)(S)O[C@@H]3[C@@H]4O)c2n1 (single isomer, unassigned) [37b]
22.2 °C	9.3 °C	15.9 °C	0.035 µM	16 °C	–	–	–	–	–	O=c1c2ncn([C@@H]3O[C@@H]4COP(=O)(S)O[C@H]5[C@@H](F)[C@H](n6cc7c8c(ncnc86)SCCC7)O[C@@H]5COP(=O)(S)O[C@@H]3[C@@H]4O)c2ncn1CCO (single isomer, unassigned) [48a]
–	–	–	3.4 µM	–	12.6 °C	5.8 °C	10.3 °C	14.2 °C	–	NCCn1cnc2c(ncn2[C@@H]2O[C@@H]3COP(=O)(S)O[C@H]4[C@@H](F)[C@H](n5cc6c7c(ncnc75)NCCC6)O[C@@H]4COP(=O)(S)O[C@@H]2[C@@H]3O)c1=O (single isomer, unassigned) [35b]
